How the values were obtained:
Assay type in all cases: in vivo
[1] = system: Puccinia recondita f. sp. tritici; assay: Test B: wheat leaf rust, preventive spray on wheat seedlings; details: 192 h, 100 = 100% disease control, 0 = no control, read-out: Test B disease control rating
Outline: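 Wheat seedlings were sprayed to run-off with compound suspended at ppm concentrations in acetone/water containing 250 ppm PEG400. The next day they were inoculated with Puccinia recondita f. sp. tritici spores, held saturated at 20 °C for 24 h, then kept 7 days at 20 °C. Disease control was rated 0–100% relative to untreated controls.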

Septoria tritici [2] = assay: Test A: wheat leaf blotch, preventive spray on wheat seedlings; details: Zymoseptoria tritici, 456 h, 100 = 100% disease control, 0 = no control, read-out: Test A disease control rating
Outline: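 Wheat seedlings sprayed to run-off with compound suspended in acetone/water with 250 ppm PEG400 surfactant, inoculated next day with Septoria tritici spores. Held 48 h saturated at 24 °C, then 17 days at 20 °C; disease rated 0–100% control relative to controls.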

Alternaria solani [3] = assay: Test F: tomato early blight, preventive spray on tomato seedlings; details: 120 h, 100 = 100% disease control, 0 = no control, read-out: Test F disease control rating
Outline: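 Tomato seedlings were sprayed to run-off with compound suspended in acetone/water (50/50) with 250 ppm PEG400 and inoculated with Alternaria solani spores the next day. Plants were held 48 h at 27 °C in saturated humidity, then 3 days at 20 °C. Disease control was rated visually from 0 to 100 against untreated controls.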

Phakopsora pachyrhizi = assay: Test D: Asian soybean rust, preventive spray on soybean seedlings; details: 216 h, 100 = 100% disease control, 0 = no control, read-out: Test D disease control rating
Outline: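 Compounds in acetone/water (50/50) with 250 ppm PEG400, dosed in ppm, sprayed to run-off on soybean seedlings; inoculated with P. pachyrhizi spores next day. Held 24 h at 22 °C in saturated air, then 8 days at 22 °C; visual rating of disease control, 0–100, relative to untreated controls.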

Botrytis cinerea [4] = assay: Test E1 (comparative): tomato Botrytis, tomato seedlings; details: 100 = 100% disease control
Excerpt: (§1) General protocol for preparing test suspensions for Tests A1-F1: the test compounds were first dissolved in acetone in an amount equal to 3% of the final volume and then suspended at the desired concentration (in ppm) in acetone and purified water (50/50 mix by volume) containing 250 ppm of the surfactant PEG400 (polyhydric alcohol esters). The resulting test suspensions were then used in Tests A1-F1.
(§2) The test suspension was sprayed to the point of run-off on tomato seedlings. The following day the seedlings were inoculated with a spore suspension of Botrytis cinerea (the causal agent of tomato Botrytis) and incubated in a saturated atmosphere at 20° C. for 48 h, and then moved to a growth chamber at 24° C. for 3 days, after which time visual disease ratings were made.
(§3) A rating of 100 indicates 100% disease control and a rating of 0 indicates no disease control (relative to the controls).

Septoria tritici [5] = assay: Test A1 (comparative): wheat leaf blotch, wheat seedlings; details: 100 = 100% disease control, 0 = no control
Excerpt: as §1
(§4) The test solution was sprayed to the point of run-off on wheat seedlings. The following day the seedlings were inoculated with a spore suspension of Septoria tritici (the causal agent of wheat leaf blotch) and incubated in a saturated atmosphere at 24° C. for 48 h, and then moved to a growth chamber at 20° C. for 17 days, after which time disease ratings were made.
as §3

Alternaria solani [6] = assay: Test F1 (comparative): tomato early blight, tomato seedlings; details: Rate 10 ppm, 100 = 100% disease control
Excerpt: as §1
as §2, with “Alternaria solani” for “Botrytis cinerea”, “early blight)” for “Botrytis)”, “27°” for “20°”, “20°” for “24°”
as §3

[7] = system: Puccinia recondita f. sp. tritici; assay: Test B1 (comparative): wheat leaf rust, wheat seedlings; details: 100 = 100% disease control
Excerpt: as §1
as §4, with “Puccinia recondita f. sp.” for “Septoria”, “rust)” for “blotch)”, “20°” for “24°”, “24” for “48”, “7” for “17”
as §3

[8] = system: Blumeria graminis f. sp. tritici; assay: Test C1 (comparative): wheat powdery mildew, wheat seedlings; details: 100 = 100% disease control
Excerpt: as §1
The test suspension was sprayed to the point of run-off on wheat seedlings. The following day the seedlings were inoculated with a spore dust of Blumeria graminis f. sp. tritici, (also known as Erysiphe graminis f. sp. tritici, the causal agent of wheat powdery mildew) and incubated in a growth chamber at 20° C. for 8 days, after which time visual disease ratings were made.
as §3

Botrytis cinerea [9] = assay: Test E: tomato Botrytis, preventive spray on tomato seedlings; details: 120 h, 100 = 100% disease control, 0 = no control, read-out: Test E disease control rating
Outline: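 Compound suspended in 50/50 acetone/water with 250 ppm PEG400 surfactant and sprayed to run-off on tomato seedlings; Botrytis cinerea spores applied the next day. Incubation 48 h at 20° C in saturated atmosphere, then 3 days at 24° C. Visual rating 0–100% disease control relative to controls.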

## Cc1nn(C)c(Nc2c(F)cccc2[N+](=O)[O-])c1-c1ccc(F)cc1Cl [Compound 112, 4-(2-chloro-4-fluorophenyl)-N-(2-fluoro-6-nitrophenyl)-1,3-dimethyl-1H-pyrazol-5-amine]
[1]; 10 ppm
  pest or weed control at 10 ppm: 100%
[1]; 50 ppm
  pest or weed control at 50 ppm: 100%
Septoria tritici [2]; 10 ppm
  pest or weed control at 10 ppm: 72%
Septoria tritici [2]; 50 ppm
  pest or weed control at 50 ppm: 88%
Alternaria solani [3]; 10 ppm
  pest or weed control at 10 ppm: 98%
Alternaria solani [3]; 50 ppm
  pest or weed control at 50 ppm: 100%
Phakopsora pachyrhizi; 10 ppm
  pest or weed control at 10 ppm: 52%
Phakopsora pachyrhizi; 50 ppm
  pest or weed control at 50 ppm: 99%
Botrytis cinerea [4]; Rate 10 ppm
  Test E1 disease control rating: 99%
Botrytis cinerea [4]; Rate 50 ppm
  Test E1 disease control rating: 99%
Septoria tritici [5]; Rate 10 ppm
  Test A1 disease control rating: 81%
Septoria tritici [5]; Rate 50 ppm
  Test A1 disease control rating: 100%
Alternaria solani [6]
  Test F1 disease control rating: 99%
[7]; Rate 10 ppm
  Test B1 disease control rating: 86%
[7]; Rate 50 ppm
  Test B1 disease control rating: 100%
[8]; Rate 10 ppm
  Test C1 disease control rating: 97%
[8]; Rate 50 ppm
  Test C1 disease control rating: 98%
Botrytis cinerea [9]; 10 ppm
  pest or weed control at 10 ppm: 100%
Botrytis cinerea [9]; 50 ppm
  pest or weed control at 50 ppm: 100%

— patent publication US20230148599A1, “FUNGICIDAL MIXTURES CONTAINING PYRAZOLE DERIVATIVES” (FMC Corporation, priority 2020, published 2023)
